According to article doi:10.1101/713214v1 (biorxiv, 2019):

Key:
Type in all cases: biochemical
MtbClpP1P2 = MtbClpP1P2 (Mycobacterium tuberculosis, UniProt P9WPC5); assay: fluorogenic peptidase assay, Z-Gly-Gly-Leu-AMC
EcClpP = EcClpP (Escherichia coli, UniProt P0A6G7); assay: fluorogenic peptidase assay, Suc-LY-AMC
PaClpP1 = PaClpP1 (Pseudomonas aeruginosa, UniProt Q9I2U1); assay: fluorogenic peptidase assay, Suc-LY-AMC
SaClpP = target: T1, SaClpP (Staphylococcus aureus, UniProt Q2G036); assay: fluorogenic peptidase assay, Suc-LY-AMC
T1 sequence (Q2G036 1-195): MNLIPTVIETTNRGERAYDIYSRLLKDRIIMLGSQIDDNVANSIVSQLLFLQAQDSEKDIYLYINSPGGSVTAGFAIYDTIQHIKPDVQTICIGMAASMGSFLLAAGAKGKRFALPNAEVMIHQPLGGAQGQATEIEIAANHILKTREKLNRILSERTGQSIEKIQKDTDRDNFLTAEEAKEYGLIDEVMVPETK

hClpP = hClpP (Homo sapiens, UniProt Q16740); assay: fluorogenic peptidase assay, Suc-LY-AMC
Chain of hClpP (Q16740 58-277): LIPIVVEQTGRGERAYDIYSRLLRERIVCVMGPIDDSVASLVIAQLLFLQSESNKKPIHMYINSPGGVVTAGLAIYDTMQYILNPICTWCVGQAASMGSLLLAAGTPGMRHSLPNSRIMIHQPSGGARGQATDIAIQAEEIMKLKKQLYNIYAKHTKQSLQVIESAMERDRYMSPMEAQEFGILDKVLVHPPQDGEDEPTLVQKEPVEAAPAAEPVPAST

Chain of MtbClpP1P2 (P9WPC5 whole entry, looked up): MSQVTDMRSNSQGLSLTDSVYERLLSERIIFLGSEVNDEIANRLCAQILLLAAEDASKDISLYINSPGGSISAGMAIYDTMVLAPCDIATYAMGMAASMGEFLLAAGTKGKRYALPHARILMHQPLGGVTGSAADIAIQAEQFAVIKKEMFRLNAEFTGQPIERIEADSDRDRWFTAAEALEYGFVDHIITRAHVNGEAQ
Chain of EcClpP (P0A6G7 15-207): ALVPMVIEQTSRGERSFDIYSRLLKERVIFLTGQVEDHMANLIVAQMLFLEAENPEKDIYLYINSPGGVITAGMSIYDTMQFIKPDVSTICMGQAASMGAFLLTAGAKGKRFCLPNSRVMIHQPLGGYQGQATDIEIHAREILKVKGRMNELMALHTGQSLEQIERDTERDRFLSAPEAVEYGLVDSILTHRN
Chain of PaClpP1 (Q9I2U1 whole entry): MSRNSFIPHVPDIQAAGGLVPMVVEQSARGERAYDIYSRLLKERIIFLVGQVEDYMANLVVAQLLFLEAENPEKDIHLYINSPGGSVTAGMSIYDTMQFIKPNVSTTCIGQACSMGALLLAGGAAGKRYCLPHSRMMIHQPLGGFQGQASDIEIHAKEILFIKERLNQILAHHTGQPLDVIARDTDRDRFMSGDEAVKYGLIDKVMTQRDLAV

## Cc1cc2c(F)c(Oc3ncnn4cc(OC[C@@H](C)O)c(C)c34)ccc2[nH]1 [brivanib]
MtbClpP1P2
  IC50: 12.5 µM

## COc1cc2c(Oc3ccc4[nH]c(C)cc4c3F)ncnc2cc1OCCCN1CCCC1 [cediranib]
MtbClpP1P2
  IC50: 3.4 ± 0.7 µM
EcClpP
  IC50: > 100 µM
PaClpP1
  IC50: > 100 µM
SaClpP
  IC50: > 100 µM
hClpP
  IC50: 36.6 ± 0.5 µM
